For series [1], the system named is MITOL and mitochondrial proteins in C2C12 myoblasts. Kind of series: Western blot of mitochondrial proteins in C2C12 myoblasts. Particulars: 48 h; for levels of Tom20, Mfn2, HSP60 and ATP5a proteins / protein level of MITOL: C2C12, 5 μM or 10 μM. Format: cell-based, mouse. The protocol:
Murine myoblast C2C12 cells were used for various cellular experiments in this study. Two different sources of C2C12 cells were used depending on the experiment: C2C12 cells obtained from RIKEN BRC (RCB0987) were used for gene expression, mtDNA quantification, and mitochondrial morphology analysis; C2C12 cells from ATCC (CRL-1772) were used for OCR analysis. Cells were cultured in Dulbecco’s Modified Eagle Medium (DMEM; Sigma-Aldrich or Nacalai Tesque), supplemented with 10% FBS and 1% penicillin–streptomycin. Cells were maintained in a humidified incubator at 37°C with 5% CO2.
For cellular experiments, berberine or quinoid-type berberrubine (Q-BRB) was dissolved in DMSO, and berberrubine acetic acid adduct (AcA-BRB) was dissolved in distilled H2O. Each compound was diluted in culture medium to the indicated final concentrations.
Proteins in sample buffer were separated by SDS-PAGE and transferred to Immobilon-P PVDF membranes (IPVH00010, Millipore). Blots were probed with the indicated antibodies, and protein bands on the blot were visualized using Chemi-Lumi One L (07880-70, Nacalai Tesque) or Immobilon Western Chemiluminescent HRP Substrate (WBKLS0500, Millipore). Band images were captured using a LuminoGraph I imager (WSE-6100, ATTO). Relative band intensities were quantified using Fiji/ImageJ software. Unprocessed western blot images corresponding to the data presented in the main and supplementary figures are provided in Supplementary Figures 11–16.

Series [2] is described as follows: Water solubility, roughly examined. It is filed as physicochemical. How it is done: Finally, we compared the water solubility of the three berberrubine forms. The solubility of three compounds, the reddish-black solid (quinoid-type berberrubine), the reddish-brown solid (berberrubine acetic acid salt), and the yellow solid (berberrubine acetic acid adduct), in water was roughly examined. […] On the other hand, the reddish-brown solid dissolved in about 30 mg in 1 mL of water.

Series [3] in a line: Hepatic microsomal stability assay, human. The note with it: CLint, 1 μM, 0.2 mg/mL microsomes, NADPH, 30 min. It is filed as in vitro ADME. How it is done:
(§1) Disappearance of the parent compound over time was measured by using the amount of drug at time zero as a reference. After 5 min of preincubation, 1 mM NADPH (final concentration; the same applies to the following) was added to a mixture containing 1 μM of the compound, 0.2 mg/mL of human or mouse liver microsomes (Sekisui XenoTech), 1 mM EDTA and 0.1 M phosphate buffer (pH 7.4). The mixture solution was incubated at 37 °C for 30 min with rotation at 60 rpm. An aliquot of 50 μL of the incubation mixture was added to 250 μL of chilled acetonitrile/internal standard (IS, methyltestosterone). After centrifugation at 3150 × g for 15 min at 4 °C, the supernatants were analyzed by LC-MS/MS. Hepatic microsomal stability (mL/min/kg, CLint) was calculated according to a previous report, using 48.8 (human) or 45.4 (mouse) mg MS protein/g liver and 25.7 (human) or 87.5 (mouse) g liver/kg body weight as scaling factors. Two technical replicates were performed.

Series [4] in a line: Hepatic microsomal stability assay, mouse. It is filed as in vitro ADME. Particulars: CLint, 1 μM, 0.2 mg/mL microsomes, NADPH, 30 min. How it is done: as §1
A short description of series [5]: In vivo pharmacokinetics, single oral dose. The note with it: mice; for AUC(0-inf) / Cmax / Tmax / half-life / CL/F: male, C57BL/6 N, mouse, plasma; for CL/F: read-out: CLtot/F; for time to reach maximum plasma concentration (Cmax): oral, both 10 mg/kg and 100 mg/kg. Also noted: species or system mouse. The protocol:
All mouse experiments were approved by and conducted in accordance with the guidelines of the Animal Experiment Committee of the University of Tokyo (permission number: P29-24). The compounds were suspended in 0.5% methylcellulose and orally administered to 8-week-old male C57BL/6 N mice (Oriental Yeast) following an overnight fast. The dosage of the compound was 10 or 100 mg/10 mL/kg. Serial blood samples ( < 50 μL per time point) were collected from the caudal vein of each mouse at 15 and 30 min, and at 1, 2, 4, 6 and 24 h post-dose using EM MYSTAR Hematocrit Capillary treated with heparin (AS ONE). Plasma was obtained by centrifugation of the blood samples. After the final blood sampling at 24 h, the mice were humanely euthanized.
Before pharmacokinetic analyses, plasma concentrations were averaged at each time point. Concentrations below the limit of quantitation were excluded from the analysis. Pharmacokinetic analyses were conducted using PhoenixWinNonlin version 8.3 (Pharsight Corp). The maximum plasma concentrations (Cmax) and times to achieve maximum plasma concentrations (Tmax) were obtained directly from the plasma concentration-time curves. The area under the concentration-time curve from zero to infinity (AUC∞) was obtained using the linear trapezoidal method in the noncompartmental analysis module. The software was allowed to determine the best-fit line for the elimination slope for all calculations. Other parameters such as elimination half-life period (t1/2), the apparent total body clearance CLtot/F, and volume of distribution Vdz/F were further calculated.
An LCMS-8060 instrument equipped with a Shimadzu Nexera series LC system (Shimadzu) was used. Berberrubine and IS were analyzed in multiple reaction monitoring mode under electronspray ionization conditions. The analytical column used was a CAPCELL PAK C18 MGIII (3 μm × 2.0 mm ID × 35 mm; OSAKA SODA) at 50 °C. The gradient mobile phase consisted of 0.1% formic acid in water (mobile phase A) and 0.1% formic acid in acetonitrile (mobile phase B) at a total flow rate of 1 mL/min. The initial mobile phase composition was 10% B, which was held constant for 0.5 min, increased in a linear fashion to 90% B over 1 min, then held constant for 0.8 min, and finally brought back to the initial condition of 10% B over 0.01 min and reequilibrated for 1 min. The transitions (precursor ion > product ion) of berberrubine and IS (methyl testosterone) are 322.11 > 307.1 and 303.1 > 109.1 (positive), respectively.

These results are taken from paper PMC13091788 (NPJ Aging, 2026).

Where two headings read alike, the source gives them in different places. Some results are limits rather than exact numbers.

Take `COc1ccc2cc3[n+](cc2c1O)CCc1cc2c(cc1-3)OCO2` [AcA-BRB, berberrubine acetic acid adduct]: in series [1], the “levels of Tom20, Mfn2, HSP60 and ATP5a proteins” value was “dose-dependent trend in elevating”; the “protein level of MITOL” value is “significantly increased”. In series [2] (roughly examined), this compound had a solubility of at least 1000 mg/mL. Further, the “Liver microsomal metabolic stability human (pH7.4)” value in series [3] is reported as below 22.0 mL/min/kg. The “Liver microsomal metabolic stability mouse (pH7.4)” value in series [4] amounted to 1794 mL/min/kg. Besides, in series [5] (single oral gavage 10 mg/kg), the AUC(0-inf) worked out at 95.7 ng·h/mL, the Cmax was 101 ng/mL, the Tmax was 15 min and the half-life was 101 min. Moreover, in series [5] (single oral gavage 10 mg/kg), the CL/F was 1740 mL/min/kg and the Vdz/F turned out to be 253 L/kg. For the same compound, in series [5] (single oral gavage 100 mg/kg), the AUC(0-inf) was found to be 2130 ng·h/mL, the Cmax is 3060 ng/mL, the Tmax stood at 15 min and the half-life was 259 min. In series [5] (single oral gavage 100 mg/kg), the CL/F was 783 mL/min/kg and the Vdz/F was 292 L/kg. In addition, in series [5], the “time to reach maximum plasma concentration (Cmax)” value is at most 0.25 h.

As to `COc1ccc2cc3n(cc-2c1=O)CCc1cc2c(cc1-3)OCO2` [Q-BRB, quinoid-type berberrubine], in series [1], the “levels of Tom20, Mfn2, HSP60 and ATP5a proteins” value is given as “dose-dependent trend in elevating”; the “protein level of MITOL” value is recorded as “significantly increased”. For the same compound, in series [2], the “dissolution in 1000 mL of water” value is “not possible to observe any dissolution”. For the same compound, the “Liver microsomal metabolic stability human (pH7.4)” value in series [3] is reported as below 22.0 mL/min/kg. Besides, the “Liver microsomal metabolic stability mouse (pH7.4)” value in series [4] is recorded as 1839 mL/min/kg. Also, in series [5] (single oral gavage 10 mg/kg), the AUC(0-inf) is 76.5 ng·h/mL, the highest concentration (Cmax) was 126 ng/mL, the Tmax worked out at 15 min and the half-life is 89.4 min. In series [5] (single oral gavage 10 mg/kg), the CL/F amounted to 2180 mL/min/kg and the Vdz/F is 281 L/kg. In series [5] (single oral gavage 100 mg/kg), the AUC(0-inf) came to 5110 ng·h/mL, the peak level (Cmax) was 8340 ng/mL, the time of peak concentration (Tmax) was 15 min and the half-life was 299 min. In series [5] (single oral gavage 100 mg/kg), the CL/F came to 326 mL/min/kg and the Vdz/F turned out to be 141 L/kg. Also, in series [5], the “time to reach maximum plasma concentration (Cmax)” value was at most 0.25 h.

Regarding `COc1ccc2cc3[n+](cc2c1O)CCc1cc2c(cc1-3)OCO2` [berberrubine], the “MITOL expression (western blot)” value in series [1] (C2C12, 10 μM, berberrubine used as quinoid-type form) was “significantly upregulated”. Moreover, the “expression of other mitochondrial-associated proteins (Tom20, Mfn2, HSP60, ATP5a)” value in series [1] (C2C12, 10 μM, quinoid-type form) is recorded as “markedly increased”. In series [1] (C2C12, Q-BRB or AcA-BRB 10 μM), the “protein levels of OPA1, Fis1 and MFF” value was “increased”. Further, the “dissolution in 1000 mL of water” value in series [2] is recorded as “did not dissolve”.
